Where two headings read alike, the source gives them in different places.
Key:
EGFR = target: T1, EGFR (Homo sapiens, UniProt P00533); assay: Enzyme inhibitory activity on EGFR (time resolution fluorescence, biotinylated poly-Glu-Tyr substrate); format: biochemical
T1 construct: purchased Carna Biosciences, Inc; host or cells: insect cell expression system
Method: (§1) Enzyme Inhibitory Activity of Test Compound on EGFR and HER2
(§2) EGFR and HER2 purified from an insect cell expression system, and a biotinylated substrate (synthetic peptide of glutamic acid:tyrosine=4:1) were added to a 384-well plate with ATP added thereto, and an enzyme reaction was performed at room temperature. After completion of the enzyme reaction, an anti-phosphorylated tyrosine antibody labeled with europium and streptavidin labeled with alphycocyanine were added, and a phosphorylated tyrosine residue was quantified by a time resolution fluorescence method.
(§3) A test compound was adjusted to 10 mM using DMSO.
(§4) Further, using 10% DMSO solution, a 1 mM solution was prepared, and this was regarded as a maximum concentration point.
(§5) As a dilution series, a 4-fold dilution series was prepared to a 10 stage.
(§6) As a buffer, TBS containing 10 mM MgCl2, 5 mM MnCl2, 0.2 mM Na3VO4, and 0.1% BSA was used.
(§7) As EGFR and HER2 enzymes, those purified from an insect cell expression system were purchased from Carna Biosciences, Inc.
An EGFR enzyme solution was adjusted to 250 ng/ml using a buffer.
(§8) As a substrate, biotinylated poly-Glu-Tyr (4:1, manufactured by CISbio) was used. A concentration was adjusted to 3.125 μg/ml using the above buffer.
An ATP concentration on study of the EGFR enzyme was adjusted to 125 μM using the buffer.
(§9) For preparing a detection reagent, TBS containing 30 mM EDTA, 0.8M KF and 0.1% BSA was used.
(§10) An anti-phosphorylated tyrosine antibody labeled with europium, PT-66K (CISbio) was adjusted to 195 ng/ml, and streptavidin labeled with alphycocyanine, SA-XL (CISbio) was adjusted to 5 μg/ml.
(§11) As an assay plate, a 384-well plate was used. Per one well, 1.1 μl of a test compound, 4 μl of a substrate solution, and 4 μl of an enzyme solution were added, and 2 μl of an ATP solution was added to initiate an enzyme reaction. The enzyme reaction was performed at room temperature for 60 minutes, and 10 μl of a detection reagent was added to complete the reaction. One hour after completion of the reaction, time resolution fluorescent measurement was performed.

HER2 = target: T2, HER2 (Homo sapiens, UniProt P04626); assay: Enzyme inhibitory activity on HER2 (time resolution fluorescence, biotinylated poly-Glu-Tyr substrate); format: biochemical
T2 construct: purchased Carna Biosciences, Inc; host or cells: insect cell expression system
Method: as §1, §2, §3, §4, §5, §6, §7
HER2 kinase was adjusted to 1000 ng/ml using a buffer.
as §8
An ATP concentration on study of the HER2 enzyme was adjusted to 290 μM.
as §9, §10, §11

BT-474 = assay: In vitro cell proliferation inhibition, WST assay; format: cell-based, human; conditions: BT-474 cells, cultured for 3 days, read-out: BT-474 (nM) proliferation inhibitory activity (IC50 value)
Method: Test of In Vitro Cell Proliferation Inhibition of Test Compound
As a human-derived cancer cell strain, BT-474 was used. Cells were all cultured in a 37° C., 5% CO2 incubator in a medium in which 10% bovine fetal serum (ICN) and 50 units ml penicillin/60 μg/ml streptomycin solution (GIBCO) were added to Dulbecco's Modified Essential Medium (DMEM, Nacalai Tesque, Inc).

[1] = enzyme reaction at room temperature for 60 minutes
[2] = EGFR purified from insect cell expression system, ATP solution 125 μM, room temperature, 60 minutes
[3] = HER2 purified from insect cell expression system, ATP solution 290 μM, room temperature, 60 minutes

T1 sequence (P00533 25-1210): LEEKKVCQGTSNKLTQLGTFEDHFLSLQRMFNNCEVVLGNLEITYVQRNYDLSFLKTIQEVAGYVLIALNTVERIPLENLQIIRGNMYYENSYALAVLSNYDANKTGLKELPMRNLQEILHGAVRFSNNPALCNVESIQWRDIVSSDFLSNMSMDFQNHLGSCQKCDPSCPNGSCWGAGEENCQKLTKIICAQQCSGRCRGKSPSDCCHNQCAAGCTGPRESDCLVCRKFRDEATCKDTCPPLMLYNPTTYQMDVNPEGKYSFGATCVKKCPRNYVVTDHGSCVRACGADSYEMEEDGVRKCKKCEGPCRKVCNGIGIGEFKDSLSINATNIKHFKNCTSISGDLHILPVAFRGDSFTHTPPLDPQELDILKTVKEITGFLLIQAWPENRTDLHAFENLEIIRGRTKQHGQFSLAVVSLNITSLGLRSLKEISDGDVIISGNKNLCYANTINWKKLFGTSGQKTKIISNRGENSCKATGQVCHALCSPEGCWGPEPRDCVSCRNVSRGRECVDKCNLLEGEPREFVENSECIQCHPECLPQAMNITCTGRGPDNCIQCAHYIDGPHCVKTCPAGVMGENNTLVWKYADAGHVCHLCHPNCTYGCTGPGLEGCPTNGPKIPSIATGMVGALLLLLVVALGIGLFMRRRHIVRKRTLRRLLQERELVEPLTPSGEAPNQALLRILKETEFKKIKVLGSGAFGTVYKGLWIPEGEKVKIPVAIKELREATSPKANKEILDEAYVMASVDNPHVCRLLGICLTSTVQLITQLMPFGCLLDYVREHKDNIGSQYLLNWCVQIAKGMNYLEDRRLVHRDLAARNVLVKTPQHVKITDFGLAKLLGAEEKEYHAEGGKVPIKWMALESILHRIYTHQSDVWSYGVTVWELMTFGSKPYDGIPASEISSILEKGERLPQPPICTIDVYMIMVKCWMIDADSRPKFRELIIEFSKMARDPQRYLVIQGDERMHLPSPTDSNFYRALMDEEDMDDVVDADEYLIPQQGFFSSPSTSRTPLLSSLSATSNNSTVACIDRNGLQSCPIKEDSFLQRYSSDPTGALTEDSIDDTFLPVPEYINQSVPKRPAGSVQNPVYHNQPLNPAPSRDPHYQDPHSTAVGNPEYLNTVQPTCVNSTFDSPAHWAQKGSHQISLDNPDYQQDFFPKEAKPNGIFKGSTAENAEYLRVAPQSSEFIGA
T2 sequence (P04626 23-1255): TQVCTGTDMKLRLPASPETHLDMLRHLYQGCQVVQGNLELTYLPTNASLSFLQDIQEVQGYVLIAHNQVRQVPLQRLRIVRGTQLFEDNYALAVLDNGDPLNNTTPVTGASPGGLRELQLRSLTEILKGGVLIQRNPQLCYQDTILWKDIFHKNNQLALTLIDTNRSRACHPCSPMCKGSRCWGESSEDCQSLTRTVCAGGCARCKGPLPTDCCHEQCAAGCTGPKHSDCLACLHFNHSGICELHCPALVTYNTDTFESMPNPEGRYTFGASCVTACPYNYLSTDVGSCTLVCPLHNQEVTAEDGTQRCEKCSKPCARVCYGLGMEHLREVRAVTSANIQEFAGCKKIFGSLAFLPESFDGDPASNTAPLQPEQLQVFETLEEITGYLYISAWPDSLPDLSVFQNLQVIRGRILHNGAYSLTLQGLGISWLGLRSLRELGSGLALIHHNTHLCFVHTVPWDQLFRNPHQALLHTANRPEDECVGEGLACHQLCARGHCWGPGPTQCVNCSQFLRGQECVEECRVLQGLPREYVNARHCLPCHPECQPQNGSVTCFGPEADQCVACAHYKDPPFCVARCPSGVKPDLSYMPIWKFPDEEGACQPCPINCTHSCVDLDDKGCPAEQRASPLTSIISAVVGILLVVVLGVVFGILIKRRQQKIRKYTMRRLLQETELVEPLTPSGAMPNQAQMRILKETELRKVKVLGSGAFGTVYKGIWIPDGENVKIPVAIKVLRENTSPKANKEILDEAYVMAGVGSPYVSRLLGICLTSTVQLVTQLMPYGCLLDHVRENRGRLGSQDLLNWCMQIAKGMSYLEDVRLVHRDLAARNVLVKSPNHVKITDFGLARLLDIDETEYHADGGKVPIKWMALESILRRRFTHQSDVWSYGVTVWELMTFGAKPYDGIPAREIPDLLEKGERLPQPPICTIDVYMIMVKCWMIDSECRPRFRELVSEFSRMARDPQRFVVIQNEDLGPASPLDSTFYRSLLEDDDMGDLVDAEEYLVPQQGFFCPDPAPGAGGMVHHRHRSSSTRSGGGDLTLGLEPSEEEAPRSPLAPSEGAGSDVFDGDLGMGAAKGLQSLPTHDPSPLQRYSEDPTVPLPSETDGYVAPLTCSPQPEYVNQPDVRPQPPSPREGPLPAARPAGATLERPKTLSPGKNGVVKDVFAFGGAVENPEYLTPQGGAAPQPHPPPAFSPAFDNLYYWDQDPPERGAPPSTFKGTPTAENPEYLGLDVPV

| SMILES | IC50 (EGFR; [1]) | IC50 (HER2; [1]) | IC50 (BT-474; Homo sapiens, BT-474, 72 h) | IC50 (EGFR; [2]) | IC50 (HER2; [3]) | IC50 (BT-474) |
| --- | --- | --- | --- | --- | --- | --- |
| CC#C/C(=N\OCCNC[C@H](C)CO)c1ccc2ncnc(Nc3ccc(OCc4ccccn4)c(Cl)c3)c2c1 [VIII-140] | 5.5 nM | 4.3 nM | 30 nM | – | – | – |
| CC#C/C(=N\OCCN1CCC(O)CC1)c1ccc2ncnc(Nc3ccc(OCc4cccc(F)c4)c(Cl)c3)c2c1 [VIII-97] | – | – | – | 19 nM | 22 nM | 11 nM |
| CC#C/C(=N\OCCN(CC)CCOC)c1ccc2ncnc(Nc3ccc4c(cnn4Cc4cccc(F)c4)c3)c2c1 [VIII-192] | 6.2 nM | 14.2 nM | 24 nM | – | – | – |
| CC#C/C(=N\OC[C@@H]1CCCN1CC(=O)O)c1ccc2ncnc(Nc3ccc(OCc4cccc(F)c4)c(Cl)c3)c2c1 [VIII-89] | – | – | 25 nM | 27 nM | 24 nM | – |
| CC#C/C(=N\OC[C@@H](COC)NC)c1ccc2ncnc(Nc3ccc(OCc4ccccn4)c(Cl)c3)c2c1 [VIII-131] | 5.8 nM | 4.4 nM | 14 nM | – | – | – |
| CC#CC(=NOCC1CNCCN1)c1ccc2ncnc(Nc3ccc(OCc4cccc(F)c4)c(Cl)c3)c2c1 (stereo not drawn) [VIII-103] | – | – | 11 nM | 3.9 nM | 5.6 nM | – |
| CC#C/C(=N\OCCNC[C@@H]1CCCO1)c1ccc2ncnc(Nc3ccc(OCc4cccc(F)c4)c(Cl)c3)c2c1 [VIII-49] | – | – | – | 28 nM | 31 nM | 28 nM |
| CC#C/C(=N\OCCN1CCCC(O)C1)c1ccc2ncnc(Nc3ccc(OCc4ccccn4)c(Cl)c3)c2c1 (stereo not drawn) [VIII-128] | 15 nM | 17 nM | 37 nM | – | – | – |
| CC#C/C(=N\OC[C@@H]1CCC(=O)N1)c1ccc2ncnc(Nc3ccc(OCc4cccc(F)c4)c(Cl)c3)c2c1 [VIII-83] | – | – | – | 164 nM | 121 nM | 13 nM |
| CC#C/C(=N\OC[C@@H]1CNCC(=O)N1)c1ccc2ncnc(Nc3ccc(OCc4cccc(F)c4)c(Cl)c3)c2c1 [VIII-119] | – | – | – | 81 nM | 77 nM | 31 nM |
| CC#C/C(=N\OC[C@H]1CCCN1CCO)c1ccc2ncnc(Nc3ccc(OCc4cccc(F)c4)c(Cl)c3)c2c1 [VIII-90] | – | – | – | 93 nM | 97 nM | 9 nM |
| CC#C/C(=N\OC[C@H]1CCCN1CC#N)c1ccc2ncnc(Nc3ccc(OCc4cccc(F)c4)c(Cl)c3)c2c1 [VIII-86] | – | – | 13 nM | 244 nM | 304 nM | – |
| CC#C/C(=N\OC[C@H]1CNCC(=O)N1)c1ccc2ncnc(Nc3ccc(OCc4cccc(F)c4)c(Cl)c3)c2c1 [VIII-111] | – | – | – | 37 nM | 55 nM | 15 nM |
| CC#C/C(=N\OCCNCCCN1CCCC1=O)c1ccc2ncnc(Nc3ccc(OCc4cccc(F)c4)c(Cl)c3)c2c1 [VIII-50] | – | – | 27 nM | 19 nM | 15 nM | – |
| CC#CC(=NOCC(C)N)c1ccc2ncnc(Nc3ccc(OCc4cccc(F)c4)c(Cl)c3)c2c1 (stereo not drawn) [VIII-40] | – | – | – | 9.3 nM | 19.2 nM | 9 nM |
| CC#CC(=NOCC1CNCCN1)c1ccc2ncnc(Nc3ccc(OCc4ccccn4)c(Cl)c3)c2c1 (stereo not drawn) [VIII-170] | 5 nM | 5.6 nM | 19 nM | – | – | – |
| CC#C/C(=N\OCCN1CCS(=O)(=O)CC1)c1ccc2ncnc(Nc3ccc(OCc4cccc(F)c4)c(Cl)c3)c2c1 [VIII-95] | – | – | – | 209 nM | 176 nM | 25 nM |
| CC#C/C(=N\OC[C@H]1CNCCN1)c1ccc2ncnc(Nc3ccc(OCc4cccc(F)c4)c(Cl)c3)c2c1 [VIII-105] | – | – | – | 14 nM | 14 nM | 10 nM |
| CC#C/C(=N\OCC1COCCN1)c1ccc2ncnc(Nc3ccc(S(=O)(=O)c4ccccc4)cc3)c2c1 (stereo not drawn) [VIII-219] | 26 nM | 20 nM | 45 nM | – | – | – |
| CC#C/C(=N\OCCN(CC)CCOC)c1ccc2ncnc(Nc3ccc(OCc4cccc(F)c4)c(Cl)c3)c2c1 [VIII-65] | – | – | – | 97 nM | 98 nM | 30 nM |
| CC#C/C(=N\OCCNC[C@H]1CCCO1)c1ccc2ncnc(Nc3ccc(OCc4cccc(F)c4)c(Cl)c3)c2c1 [VIII-48] | – | – | – | 44 nM | 15 nM | 28 nM |

| SMILES | IC50 (EGFR; [1]) | IC50 (HER2; [1]) | IC50 (BT-474; Homo sapiens, BT-474, 72 h) | IC50 (EGFR; [2]) | IC50 (HER2; [3]) | IC50 (BT-474) |
| --- | --- | --- | --- | --- | --- | --- |
| CC#CC(=NOCCNC(=NC#N)NC)c1ccc2ncnc(Nc3ccc(OCc4cccc(F)c4)c(Cl)c3)c2c1 [VIII-58] | – | – | 37 nM | 207 nM | 236 nM | – |
| CC#C/C(=N\OC[C@@H]1CNC[C@H](C)O1)c1ccc2ncnc(Nc3ccc(OCc4cccc(F)c4)c(Cl)c3)c2c1 [VIII-109] | – | – | 40 nM | 23 nM | 18 nM | – |
| CC#C/C(=N\OCCN1CCC(O)CC1)c1ccc2ncnc(Nc3ccc(OCc4ccccn4)c(Cl)c3)c2c1 [VIII-165] | 11 nM | 11 nM | 23 nM | – | – | – |
| CC#C/C(=N\OC[C@H]1CNC[C@@H](C)O1)c1ccc2ncnc(Nc3ccc(OCc4cccc(F)c4)c(Cl)c3)c2c1 [VIII-116] | – | – | – | 37 nM | 25 nM | 50 nM |
| CNCCO/N=C(\C#CCO)c1ccc2ncnc(Nc3ccc(OCc4cccc(F)c4)c(Cl)c3)c2c1 [VIII-121] | – | – | – | 17 nM | 18 nM | 10 nM |
| CC#C/C(=N\OCCCNC)c1ccc2ncnc(Nc3ccc(OCc4ccccn4)c(Cl)c3)c2c1 [VIII-147] | 13 nM | 13 nM | 25 nM | – | – | – |
| CC#C/C(=N\OCCN1CC[C@@H](NC(C)=O)C1)c1ccc2ncnc(Nc3ccc(OCc4ccccn4)c(Cl)c3)c2c1 [VIII-149] | 13 nM | 14 nM | 28 nM | – | – | – |
| CC#C/C(=N\OCCNCCS(C)(=O)=O)c1ccc2ncnc(Nc3ccc(OCc4cccc(F)c4)c(Cl)c3)c2c1 [VIII-45] | – | – | – | 58 nM | 152 nM | 13 nM |
| CC#C/C(=N\OC[C@@H]1CNC[C@@H](C)O1)c1ccc2ncnc(Nc3ccc(OCc4cccc(F)c4)c(Cl)c3)c2c1 [VIII-110] | – | – | – | 29 nM | 35 nM | 21 nM |
| CC#C/C(=N\OCCNCCCN1CCCC1=O)c1ccc2ncnc(Nc3ccc(OCc4ccccn4)c(Cl)c3)c2c1 [VIII-133] | 8.4 nM | 7.1 nM | 43 nM | – | – | – |
| CC#C/C(=N\OC[C@@H]1C[C@H](O)CN1)c1ccc2ncnc(Nc3ccc(OCc4ccccn4)c(Cl)c3)c2c1 [VIII-152] | 2.4 nM | 4.3 nM | 22 nM | – | – | – |
| CC#C/C(=N\OCCNC[C@H]1CCC(=O)N1)c1ccc2ncnc(Nc3ccc(OCc4cccc(F)c4)c(Cl)c3)c2c1 [VIII-52] | – | – | – | 19 nM | 28 nM | 9 nM |
| CC#C/C(=N\OC[C@H]1COCCN1)c1ccc2ncnc(Nc3ccc(OCc4cccc(F)c4)c(Cl)c3)c2c1 [VIII-102] | – | – | – | 72 nM | 121 nM | 7 nM |
| CC#C/C(=N\OC[C@@H](N)CO)c1ccc2ncnc(Nc3ccc(OCc4cccc(F)c4)c(Cl)c3)c2c1 [VIII-41] | – | – | – | 12 nM | 15 nM | 14 nM |
| COCC#C/C(=N\OC[C@@H]1COCCN1)c1ccc2ncnc(Nc3ccc(S(=O)(=O)c4ccccc4)cc3)c2c1 [VIII-209] | 38 nM | 30 nM | 19 nM | – | – | – |
| CC/C(=N\OCCN1CCOCC1)c1ccc2ncnc(Nc3ccc(OCc4cccc(F)c4)c(Cl)c3)c2c1 [VIII-7] | – | – | 63 nM | 103 nM | 348 nM | – |
| CC#C/C(=N\OC[C@@H]1C[C@@H](NC(C)=O)CN1)c1ccc2ncnc(Nc3ccc(OCc4cccc(F)c4)c(Cl)c3)c2c1 [VIII-84] | – | – | – | 44 nM | 47 nM | 28 nM |
| CC#C/C(=N\OC[C@@H]1COCCN1)c1ccc2ncnc(Nc3ccc(OCc4cccc(F)c4)c(Cl)c3)c2c1 [VIII-101] | – | – | – | 56 nM | 129 nM | 12 nM |
| CC#C/C(=N\OCCN1CCN(C)CC1)c1ccc2ncnc(Nc3ccc(OCc4cccc(F)c4)c(Cl)c3)c2c1 [VIII-96] | – | – | – | 20 nM | 20 nM | 30 nM |
| CNCCO/N=C(\C#CCOC)c1ccc2ncnc(Nc3ccc(S(=O)(=O)c4ccccc4)cc3)c2c1 [VIII-208] | 28 nM | 23 nM | 27 nM | – | – | – |
